Drawing on paper PMC6792352, “Limited Chemical Structural Diversity Found to Modulate Thyroid Hormone Receptor in the Tox21 Chemical Library” (Environmental Health Perspectives, 2019), this text covers CC50 for 59 molecules.

Structures can show the parent of a compound that is named as a salt.

One series in a line: in vitro. The settings on record: rat, gh3-tre-luc cells, AC50 (uM) modified / 1000.
In the case of `CCC=CCCCCO` (stereo in doubt) [(Z)-5-Octen-1-ol], the CC50 (as a rule, the concentration that lowers cell viability or growth by half) at 24 h was greater than 90 µM.

Molecule `CC(=C(CCOC(=O)C(C)C)SSC(CCOC(=O)C(C)C)=C(C)N(C=O)Cc1cnc(C)nc1N)N(C=O)Cc1cnc(C)nc1N` (stereo in doubt) [Bisibutiamine] gave a CC50 at 24 h greater than 50 µM.

For `CC(=C(CCO)SSCC1CCCO1)N(C=O)Cc1cnc(C)nc1N` (stereo in doubt) [Fursultiamine hydrochloride], the CC50 at 24 h is greater than 50 µM.

`Cc1ccc(S(=O)(=O)NC(=O)NN2CC3CCC[C@@H]3C2)cc1` (stereo in doubt) [Gliclazide] displayed a half-maximal cytotoxic concentration (CC50) at 24 h greater than 20 µM.

Molecule `O=c1[nH]ncc2ccccc12` [1(2H)-Phthalazinone] returned a cytotoxic concentration (CC50) at 24 h greater than 90 µM.

`O=C1CCCCC1C1CCCCC1` (centres unmarked) [1,1'-Bi(cyclohexyl)-2-one] showed a CC50 at 24 h greater than 90 µM.

Turning to `N#CC1(N=NC2(C#N)CCCCC2)CCCCC1` [1,1'-Diazene-1,2-diyldicyclohexanecarbonitrile], the CC50 at 24 h is greater than 90 µM.

In turn, `O=C1CCCCCN1SSN1CCCCCC1=O` [1,1'-Disulfanediyldiazepan-2-one] displayed a CC50 at 24 h of 53.9 µM.

In turn, `O=[N+]([O-])c1ccc(Oc2ccc([N+](=O)[O-])cc2)cc1` [1,1'-Oxybis(4-nitrobenzene)] registered a 50% cytotoxic concentration (CC50) at 24 h greater than 90 µM.

As for `CC(O)COCC(C)O` (centres unmarked) [1,1'-Oxybis-2-propanol], the CC50 at 24 h is greater than 90 µM.

Consider `NC(N)=NCCCCN=C(N)N` [1,1'-Tetramethylenediguanidine sulfate], for which the CC50 at 24 h was greater than 50 µM.

In the case of `Cc1cccc(OCCOc2cccc(C)c2)c1` [1,1'-[Ethane-1,2-diylbis(oxy)]bis(3-methylbenzene)], the CC50 at 24 h is greater than 100 µM.

For `c1ccc(-c2cccc(-c3ccccc3)c2)cc1` [1,1':3',1''-Terphenyl], the CC50 at 24 h was greater than 90 µM.

On to `c1ccc(-c2ccc(-c3ccccc3)cc2)cc1` [1,1':4',1''-Terphenyl], for which the half-maximal cytotoxic concentration (CC50) at 24 h is greater than 20 µM.

In turn, `FC(F)(F)C(F)(F)C(F)(F)C(F)(F)CCI` [1,1,1,2,2,3,3,4,4-Nonafluoro-6-iodohexane] registered a CC50 at 24 h greater than 40 µM.

In the case of `BrCC(Br)(Br)Br` [1,1,1,2-Tetrabromoethane], the CC50 at 24 h is greater than 90 µM.

As for `FC(F)(F)C(Cl)(Cl)Cl` [1,1,1-Trichloro-2,2,2-trifluoroethane], the CC50 at 24 h was greater than 90 µM.

Regarding `CC(C)(O)C(Cl)(Cl)Cl` [1,1,1-Trichloro-2-methyl-2-propanol], the CC50 at 24 h is greater than 50 µM.

With `CC(Cl)(Cl)Cl` [1,1,1-Trichloroethane], the half-maximal cytotoxic concentration (CC50) at 24 h was greater than 90 µM.

For `CC(=O)C(Cl)(Cl)Cl` [1,1,1-Trichloropropanone], it took 13.3 µM to reach half-maximal cytotoxicity (CC50 at 24 h).

Regarding `COC(C)(OC)OC` [1,1,1-Trimethoxyethane], the CC50 at 24 h is greater than 90 µM.

Regarding `BrC(Br)C(Br)Br` [1,1,2,2-Tetrabromoethane], the CC50 at 24 h was greater than 90 µM.

With `FC(F)(Cl)C(F)(Cl)Cl` [1,1,2-Trichloro-1,2,2-trifluoroethane], the CC50 at 24 h is greater than 90 µM.

Molecule `CC(Cl)C(Cl)Cl` (centres unmarked) [1,1,2-Trichloropropane] displayed a CC50 at 24 h greater than 90 µM.

Regarding `CC1=Nc2ccc3ccccc3c2C1(C)C` [1,1,2-Trimethyl-1H-benzo[e]indole], the CC50 at 24 h was greater than 90 µM.

For the molecule `CCCCN(CCCC)C(=O)N(CCCC)CCCC` [1,1,3,3-Tetrabutylurea], the CC50 at 24 h is greater than 90 µM.

`CNC(=S)N(C)C` [1,1,3-Trimethyl-2-thiourea] had a CC50 at 24 h greater than 90 µM.

For the molecule `CN(C)CCN(C)CCN(C)C` [1,1,4,7,7-Pentamethyldiethylenetriamine], the CC50 at 24 h was greater than 90 µM.

Regarding `C=CC(C)CCCC(C)(C)O` (centres unmarked) [1,1,5-Trimethyl-6-heptenol], the CC50 at 24 h was greater than 90 µM.

On to `CC(=O)c1ccc(C(C)=O)cc1` [1,1-(1,4-Phenylene)bis-ethanone], for which the CC50 at 24 h was greater than 90 µM.

As for `Cc1ccc(C(C)c2ccc(C)c(C)c2)cc1C` [1,1-Bis(3,4-dimethylphenyl)ethane], the CC50 at 24 h was greater than 90 µM.

In turn, `CC=C(Cl)Cl` [1,1-Dichloropropene] returned a CC50 at 24 h greater than 90 µM.

As to `CCN(CC)/[N+]([O-])=N/O` [1,1-Diethyl-2-hydroxy-2-nitrosohydrazine diethylamine], the CC50 at 24 h is greater than 50 µM.

For the molecule `COC(C=C(C)CCC=C(C)C)OC` [1,1-Dimethoxy-3,7-dimethylocta-2,6-diene], the CC50 at 24 h was greater than 90 µM.

For the molecule `COC(C)OC` [1,1-Dimethoxyethane], the CC50 at 24 h was greater than 90 µM.

Molecule `CCCC(=O)OC(C)(C)Cc1ccccc1` [1,1-Dimethyl-2-phenylethyl butanoate] yielded a CC50 at 24 h greater than 90 µM.

Molecule `CC(=O)OC(C)OC(C)=O` [1,1-Ethanediol diacetate] gave a CC50 at 24 h greater than 90 µM.

As to `O=C=NC1CCC(CC2CCC(N=C=O)CC2)CC1` (centres unmarked) [1,1-Methylenebis(4-isocyanatocyclohexane)], the CC50 at 24 h was greater than 90 µM.

Consider `CN1C(C)(C)CC(O)CC1(C)C` [1,2,2,6,6-Pentamethylpiperidin-4-ol], for which the 50% cytotoxic concentration (CC50) at 24 h is greater than 90 µM.

`Cl[C@H]1[C@H](Cl)[C@@H](Cl)[C@@H](Cl)[C@H](Cl)[C@H]1Cl` [1,2,3,4,5,6-Hexachlorocyclohexane]: the CC50 at 24 h was 45.8 µM.

`O=C(O)CC(C(=O)O)C(CC(=O)O)C(=O)O` (centres unmarked) [1,2,3,4-Butanetetracarboxylic acid] yielded a CC50 at 24 h greater than 90 µM.

With `Clc1ccc(Cl)c(Cl)c1Cl` [1,2,3,4-Tetrachlorobenzene], the CC50 at 24 h is greater than 90 µM.

On to `Nc1c2c(nc3ccccc13)CCCC2` [1,2,3,4-Tetrahydro-9-acridinamine hydrochloride], for which the CC50 at 24 h is greater than 90 µM.

As for `c1ccc2c(c1)CCNC2` [1,2,3,4-Tetrahydroisoquinoline], the CC50 at 24 h was greater than 90 µM.

In turn, `OC1CCCc2ccccc21` (centres unmarked) [1,2,3,4-Tetrahydronaphthalen-1-ol] returned a CC50 at 24 h greater than 90 µM.

As to `O=C1CCCc2ccccc21` [1,2,3,4-Tetrahydronaphthalen-1-one], the CC50 at 24 h was greater than 90 µM.

In turn, `Clc1cc(Cl)c(Cl)c(Cl)c1` [1,2,3,5-Tetrachlorobenzene] gave a CC50 at 24 h greater than 90 µM.

The molecule `Cc1cc(C)c(C)c(C)c1` [1,2,3,5-Tetramethylbenzene] registered a CC50 at 24 h greater than 90 µM.

The same series, now with this note: rat, gh3-tre-luc cells, AC50 (uM) modified / 1000, Tox21_110001=Tox21_112818; viability, 1 nM T3 present, 24 h.
`C[C@H]1N=C(N)O[C@H]1c1ccccc1` (stereo in doubt) [(4R,5S)-4-methyl-5-phenyl-4,5-dihydro-1,3-oxazol-2-amine]: the CC50 at 24 h was greater than 90 µM.

Staying with this series, now noted: rat, gh3-tre-luc cells, AC50 (uM) modified / 1000, Tox21_110001=Tox21_200074; viability, 1 nM T3 present, 24 h.
As for `ClC(Cl)C(Cl)Cl` [1,1,2,2-Tetrachloroethane], the CC50 at 24 h was greater than 90 µM.

The series is the same for the next values; noted with them: rat, gh3-tre-luc cells, AC50 (uM) modified / 1000, Tox21_110001=Tox21_200205; viability, 1 nM T3 present, 24 h.
`CC(Cl)Cl` [1,1-Dichloroethane] displayed a CC50 at 24 h greater than 90 µM.

The series is the same for the next values; noted with them: rat, gh3-tre-luc cells, AC50 (uM) modified / 1000, Tox21_110001=Tox21_200357; viability, 1 nM T3 present, 24 h.
Turning to `C=C(Cl)Cl` [1,1-Dichloroethylene], the cytotoxic concentration (CC50) at 24 h was greater than 100 µM.

The series is the same for the next values; noted with them: rat, gh3-tre-luc cells, AC50 (uM) modified / 1000, Tox21_110001=Tox21_201090; viability, 1 nM T3 present, 24 h.
`CC(=O)C(Cl)Cl` [1,1-Dichloropropanone] displayed a CC50 at 24 h greater than 90 µM.

Still in this series, the particulars now being: rat, gh3-tre-luc cells, AC50 (uM) modified / 1000, Tox21_110001=Tox21_201109; viability, 1 nM T3 present, 24 h.
As to `ClCC(Cl)(Cl)Cl` [1,1,1,2-Tetrachloroethane], the CC50 at 24 h is greater than 100 µM.

The same series, now with this note: rat, gh3-tre-luc cells, AC50 (uM) modified / 1000, Tox21_110001=Tox21_201178; viability, 1 nM T3 present, 24 h.
`CC(Cl)(Cl)[N+](=O)[O-]` [1,1-Dichloro-1-nitroethane]: the CC50 at 24 h is greater than 90 µM.

The same series, now with this note: rat, gh3-tre-luc cells, AC50 (uM) modified / 1000, Tox21_110001=Tox21_202465; viability, 1 nM T3 present, 24 h.
Molecule `ClCC(Cl)Cl` [1,1,2-Trichloroethane] had a CC50 at 24 h greater than 90 µM.

The series is the same for the next values; noted with them: rat, gh3-tre-luc cells, AC50 (uM) modified / 1000, Tox21_110001=Tox21_202795; viability, 1 nM T3 present, 24 h.
As for `O=C(CCl)C(Cl)Cl` [1,1,3-Trichloropropanone], half-maximal cytotoxicity (CC50 at 24 h) was put at 13 µM.

The series is the same for the next values; noted with them: rat, gh3-tre-luc cells, AC50 (uM) modified / 1000, Tox21_110001=Tox21_302237; viability, 1 nM T3 present, 24 h.
Regarding `Cc1c([N+](=O)[O-])cc2c(c1[N+](=O)[O-])C(C)(C)CC2(C)C` [1,1,3,3,5-Pentamethyl-4,6-dinitro-2,3-dihydro-1H-indene], the CC50 at 24 h is 74.8 µM.

The same series, now with this note: rat, gh3-tre-luc cells, AC50 (uM) modified / 1000, Tox21_110001=Tox21_302358; viability, 1 nM T3 present, 24 h.
In turn, `CN(C)N` [1,1-Dimethylhydrazine] showed a CC50 at 24 h greater than 90 µM.
